Assay results published in patent publication US6703370B1, “Use of ribose to treat fibromyalgia” (Bioenergy, Inc., priority 1999, dated 2004).

Columns and labels:
Assay type in all cases: in vivo, human
fibromyalgia patient = experiment: Alleviation of symptoms in a fibromyalgia patient (single case, oral ribose)
Source text: A patient diagnosed with fibromyalgia had been experiencing extreme muscle pain and fatigue as well as irritable bowel syndrome, disturbed sleep, and cognitive dysfunction. They had been told by their physician that they were in the worst stage of the condition and could end up in a wheel chair within a year. They began taking ribose, one teaspoonful (about 5 grams), 4 times per day. […] They continued taking it for a week then decided to observe the effects of stopping the doses of ribose, so they discontinued the protocol for one week. […] They stated that “It is without a doubt the best product I have ever been on.”

fibromyalgia subjects = experiment: Pilot study on the effect of ribose in alleviating the symptoms of fibromyalgia (SF-36 health status profile and subject reports)
Source text: Four women subjects ranging in age from 45 to 55 were given ribose and instructed to take at least 20 grams per day, preferably divided in four doses. The recommended mode of administration was one heaping teaspoon, about five to seven grams, mixed in six to eight ounces of water, taken preferably with meals and before planned activity. Subjects were encouraged to vary the dosage according to their perceived needs. Each subject was given a health status profile (SF-36) to complete. The profile was to be filled out both before and after four weeks of ribose administration. Two of the subjects complied with filling out the profile.
Health Status Profile (SF-36):
1) General health compared to one year ago: 1=much better, 2=somewhat better, 3=about the same, 4=somewhat worse, 5=much worse
2) Energy, 2 questions, from peppy all of the time to none of the time.
3) Activities, 12 examples from vigorous to mild, scored as: limited a lot, limited a little, not limited
4) Pain: 1=none, 2=very mild, 3=mild, 4=moderate, 5=severe, 6 =very severe The results of each subject's before and after ratings are summarized in Table I.

[1] = test system: patients with fibromyalgia (FM); experiment: Planned double-blind crossover study of oral ribose in fibromyalgia; conditions: 16 patients planned, 20 gm per day (10 gm bid), 4 weeks, crossover against dextrose placebo
Source text: Following the informal studies in five subjects, a protocol was written to determine whether oral ribose administration in patients with fibromyalgia (FM) can reduce symptoms of fatigue and pain and improve the subjects' quality of life. The study endpoints will be: (1) the patient's visual analog (PVA) scale for pain, (2) the patient's analog scale for fatigue, (3) the physician's global assessment (GAphs), (4) the patient's global assessment (GAPT), (5) the Western Ontario MacMaster Questionaire (WOMAC) index, (6) SF-36 quality of life form, (7) the patient's's daily activity/events log and (8) the number of days to study discontinuation, if the patient chooses to do so, based upon his/her improved condition. The study will include 16 patients with a confirmed diagnosis of FM using a double-blind crossover design. All patients who meet entrance or screening criteria will be randomly assigned to either treatment #1 (oral dextrose as a placebo) or treatment #2 (oral ribose) at a dose of 20 gm per day (10 gm bid), as a first treatment modality. Both physician and patient will be blinded to the treatment modality. Informed consent will be obtained prior to enrolment. […] All endpoint parameters will be assessed at baseline prior to treatment, after 4 weeks of treatment one, at the end of the workout period, and again following 4 weeks of treatment 2 (“crossover” treatment modality). […]

fibromyalgia patients = experiment: Applicants' general finding on steady ingestion of ribose; conditions: steady ingestion two to four times per day over the course of a week
Source text: Continued ingestion leads to greater improvement, in turn allowing the patient to endure the much needed regular exercise to further relieve the painful symptoms.

[2] = after resuming, one teaspoonful 4 times per day, after 4 weeks

SMILES: O=C[C@H](O)[C@H](O)[C@H](O)CO [ribose, D-ribose]
- Irritable painful bowel syndrome (fibromyalgia patient; [2]): improved their irritable painful bowel syndrome
- Pain, fatigue and morning stiffness (fibromyalgia patient; [2]): alleviated their pain, fatigue and morning stiffness
- Energy and flare ups of muscle soreness (fibromyalgia patient; patient, about 5 grams 4 times per day, first week): more energy and fewer flare ups of muscle soreness
- Symptoms on starting ribose (fibromyalgia patient; patient, about 5 grams 4 times per day, oral): immediate improvement in their symptoms
- Symptoms after discontinuing ribose (fibromyalgia patient; protocol discontinued for one week): symptoms returned to their previous level
- General health compared to last year, after (fibromyalgia subjects; Subject #1, 45-54, fibromyalgia for 15 years, after four weeks of ribose, at least 20 grams per day, before: much worse, after cell wraps r10-r11: somewhat better): somewhat
- Activities (12 total) limited a lot, after (fibromyalgia subjects; Subject #1, after four weeks of ribose, before: 8 of 12 limited a lot): 1 of 12 limited a
- Energy, after (fibromyalgia subjects; Subject #1, after four weeks of ribose, before: little of the time, after cell wraps r11-r12: all of the time): all of the
- Pain, after (fibromyalgia subjects; Subject #1, after four weeks of ribose, before: very severe): moderate
- General health compared to last year, after (fibromyalgia subjects; Subject #2, 50-55, fibromyalgia for several years, after four weeks of ribose, before: somewhat better): much better
- Activities (12 total) limited, after (fibromyalgia subjects; Subject #2, after four weeks of ribose, before: 2 of 12 limited a lot): 0 of 12 limited
- Energy, after (fibromyalgia subjects; Subject #2, after four weeks of ribose, before: none of the time, after cell wraps r16-r17: some of the time): some of the
- Pain, after (fibromyalgia subjects; Subject #2, after four weeks of ribose, before: severe): moderate
- Energy (fibromyalgia subjects; Subject #3): more energetic
- Energy after cessation of administration (fibromyalgia subjects; Subject #3): next-day loss of energy
- Severe pain at the tender points (fibromyalgia subjects; Subject #3): did not feel a decrease in severe pain at the tender points
- Fatigue level and achiness (fibromyalgia subjects; Subject #3, compliant with protocol, no profile): improvement in their fatigue level and less achiness
- Energy when ribose is taken on feeling exhausted (fibromyalgia subjects; Subject #4, did not follow the protocol): feel more energetic
- Energy and aching after suspending ribose administration (fibromyalgia subjects; Subjects #1 and #2, on suspending ribose): drop in energy and increase in aching within a day
- Overall relief from symptoms of fibromyalgia (fibromyalgia subjects; all subjects of the pilot study): all reported some alleviation
- Expected alleviation of achiness, fatigue and/or pain at the tender points [1]: most of the patients will experience some alleviation of achiness, fatigue and/or pain at the tender points
- Fatigue, achiness, pain, energy and irritable bowel syndrome (fibromyalgia patients): noticeable improvement in the level of fatigue, achiness, pain, and energy, and alleviation of irritable bowel syndrome
